Patent US11401271B2, “Fused heterocyclic compound, pyrazole-ring-containing fused heterocyclic compound, agricultural composition containing thereof, and method of using the composition” (SOUTH CHINA AGRICULTURAL UNIVERSITY, priority 2017, dated 2022)
Where two headings read alike, the source gives them in different places.

Assays:
Test in all cases: whole plant or invertebrate
Format in all cases: in vivo
Plutella xylostella = details: for Plutella xylostella Mortality (%) / Plutella xylostella Mortality (%) 500 ppm: 500 ppm, 2nd-instar larvae, leaf immersion feeding; for mortality at 500 ppm: Plutella xylostella, read-out: Plutella xylostella Mortality (%) 500 ppm
How it was run: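 Cabbage leaf discs dipped 5 s in compound at 500 ppm (0.05% Tween-80 aqueous), air-dried, fed to about 35 2nd-instar larvae at 28° C., triplicate. Dead larvae counted after 24 h; mortality (%) corrected against Tween-80 control.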

Spodoptera exigua = details: for Spodoptera exigua Mortality (%) / Spodoptera exigua Mortality (%) 500 ppm: 500 ppm, 2nd-instar larvae, leaf immersion feeding; for mortality at 500 ppm: Spodoptera exigua, 24 h, read-out: Spodoptera exigua Mortality (%) 500 ppm; for Spodoptera exigua Mortality (%) 500 ppm: 24 hours
How it was run: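 Cabbage leaf discs dipped 5 s in 500 ppm compound (0.05% Tween-80 aqueous), air-dried, fed to about 35 2nd-instar larvae at 28° C, three replicates. Deaths counted at 24 h; mortality corrected against Tween-80 control.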

Aphis craccivora = details: for Aphis craccivora Mortality (%) / Aphis craccivora Mortality (%) 500 ppm: 500 ppm, wingless adults; for Aphis craccivora Mortality (%): immersion 5 seconds, counted after 24 hours; for mortality at 500 ppm: Aphis craccivora, 24 h, read-out: Aphis craccivora Mortality (%) 500 ppm; for Aphis craccivora Mortality (%) 500 ppm: impregnation method, 24 hours
How it was run: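 Wingless adults feeding on bean sprouts were dipped with the sprouts for 5 s in 500 ppm compound in aqueous 0.05% Tween-80, air-dried, then held at 23° C. Dead aphids counted after 24 h, triplicate, with 0.05% Tween-80 as control. Mortality (%) = (control live − treated live)/control live × 100.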

Solenopsis invicta = details: water test tube poison-feeding; for Solenopsis invicta Mortality (%) 24 h / Solenopsis invicta Mortality (%) 72 h / Solenopsis invicta Mortality (%) 100 ppm 24 h / Solenopsis invicta Mortality (%) 100 ppm 72 h: 100 ppm; for mortality at 100 ppm: Solenopsis invicta
How it was run: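 Fire ants fed compound by water test-tube poison-feeding at 100 ppm in aqueous 0.05% Tween-80/5% honey (from 10 g/L DMSO stock), kept at 25 °C. Live and dead ants counted at 24 and 72 h; mortality (%) calculated relative to live ants in the untreated control.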

[1] = 24 h, read-out: Solenopsis invicta Mortality (%) 100 ppm 24 h, 100 ppm, 24 h
[2] = 72 h, read-out: Solenopsis invicta Mortality (%) 100 ppm 72 h, 100 ppm, 72 h

| SMILES | Plutella xylostella Mortality (%) (Plutella xylostella) | Spodoptera exigua Mortality (%) (Spodoptera exigua) | Aphis craccivora Mortality (%) (Aphis craccivora) | Solenopsis invicta Mortality (%) 24 h (Solenopsis invicta; 24 h) [%] | Solenopsis invicta Mortality (%) 72 h (Solenopsis invicta; 72 h) [%] | also measured |
| --- | --- | --- | --- | --- | --- | --- |
| CC(=O)C1(CC(F)(F)F)Nc2c([S+]([O-])C(F)(F)F)c(C#N)nn2-c2c(Cl)cc(C(F)(F)F)cc21 (stereo not drawn) [d-48] | 96 | 90 | 100 | 26 | 100 | – |
| N#Cc1nn2c(c1[S+]([O-])C(F)(F)F)NC(Cc1ccccc1)(C(=O)C(F)(F)F)c1cc(C(F)(F)F)cc(Cl)c1-2 (stereo not drawn) [d-52] | 100 | 100 | 100 | 24 | 100 | – |
| CCc1nn2c(c1Br)NC(/C=C\C(=O)OC)(/C=C/C(=O)OC)c1cc(C(F)(F)F)cc(Cl)c1-2 (stereo not shown) [Compound C63] | – | – | – | – | – | mortality at 500 ppm (Plutella xylostella): 98%; mortality at 500 ppm (Spodoptera exigua): 90%; mortality at 500 ppm (Aphis craccivora): 96%; mortality at 100 ppm (Solenopsis invicta; [1]): 29%; mortality at 100 ppm (Solenopsis invicta; [2]): 98% |
| N#CCC1(C(F)(F)F)Nc2c([S+]([O-])C(F)(F)F)c(C#N)nn2-c2ncc(C(F)(F)F)cc21 (stereo not shown) [a-59] | – | – | – | – | – | Plutella xylostella Mortality (%) 500 ppm (Plutella xylostella): 96%; Spodoptera exigua Mortality (%) 500 ppm (Spodoptera exigua): 91%; Aphis craccivora Mortality (%) 500 ppm (Aphis craccivora): 100%; Solenopsis invicta Mortality (%) 100 ppm 24 h (Solenopsis invicta; 24 h): 28%; Solenopsis invicta Mortality (%) 100 ppm 72 h (Solenopsis invicta; 72 h): 97% |
| CC(=O)CC1(C(=O)C(F)(F)F)Nc2c([S+]([O-])C(F)(F)F)c(C#N)nn2-c2ncc(C(F)(F)F)cc21 (stereo not shown) [a-26] | – | – | – | – | – | Plutella xylostella Mortality (%) 500 ppm (Plutella xylostella): 100%; Spodoptera exigua Mortality (%) 500 ppm (Spodoptera exigua): 100%; Aphis craccivora Mortality (%) 500 ppm (Aphis craccivora): 100%; Solenopsis invicta Mortality (%) 100 ppm 24 h (Solenopsis invicta; 24 h): 34%; Solenopsis invicta Mortality (%) 100 ppm 72 h (Solenopsis invicta; 72 h): 100% |
| COC(=O)CC1(C(=O)OC)Nc2c(C#N)c(C(F)(F)F)nn2-c2cc(C(F)(F)F)cc(Cl)c21 (stereo not shown) [c-4] | 97 | 100 | 100 | 29 | 93 | – |
| N#Cc1nn2c(c1[S+]([O-])C(F)(F)F)NC(Cl)c1cc(C(F)(F)F)cnc1-2 (stereo not shown) [a-80] | – | – | – | – | – | Plutella xylostella Mortality (%) 500 ppm (Plutella xylostella): 91%; Spodoptera exigua Mortality (%) 500 ppm (Spodoptera exigua): 85%; Aphis craccivora Mortality (%) 500 ppm (Aphis craccivora): 100%; Solenopsis invicta Mortality (%) 100 ppm 24 h (Solenopsis invicta; 24 h): 10%; Solenopsis invicta Mortality (%) 100 ppm 72 h (Solenopsis invicta; 72 h): 100% |
| N#Cc1nn2c(c1[S+]([O-])C(F)(F)F)NC(Cc1ccccc1)(C(=O)C(F)(F)F)c1c(Cl)cc(C(F)(F)F)cc1-2 (stereo not shown) [c-36] | 92 | 90 | 95 | 21 | 100 | – |
| CSc1nn2c(c1C(=O)N(C)C)NC(F)(C(F)(F)F)c1ccccc1-2 (stereo not shown) [Compound A29] | – | – | – | – | – | mortality at 500 ppm (Plutella xylostella): 100%; mortality at 500 ppm (Spodoptera exigua): 100%; mortality at 500 ppm (Aphis craccivora): 100%; mortality at 100 ppm (Solenopsis invicta; [1]): 26%; mortality at 100 ppm (Solenopsis invicta; [2]): 95% |
| C=CC1(CCl)Nc2c(Br)c(C#N)nn2-c2c(Cl)cc(C(F)(F)F)cc21 (stereo not shown) [Compound C5] | – | – | – | – | – | mortality at 500 ppm (Plutella xylostella): 100%; mortality at 500 ppm (Spodoptera exigua): 100%; mortality at 500 ppm (Aphis craccivora): 100%; mortality at 100 ppm (Solenopsis invicta; [1]): 34%; mortality at 100 ppm (Solenopsis invicta; [2]): 100% |
| CCOC(=O)CC1(C(=O)OCC)Nc2c([S+]([O-])C(F)(F)F)c(C#N)nn2-c2c(C(F)(F)F)ccc(Cl)c21 (stereo not shown) [e-5] | 100 | 100 | 100 | 34 | 100 | – |
| CC(C)C1Nc2c(OC(F)(F)F)c(C#N)nn2-c2cncc(Cl)c21 (stereo not shown) [b-131] | 95 | 95 | 100 | 11 | 100 | – |
| CC(=O)C1(CBr)Nc2c([S+]([O-])C(F)(F)F)c(C#N)nn2-c2cncc(Cl)c21 (stereo not shown) [b-34] | 90 | 87 | 100 | 10 | 100 | – |
| COC(=O)C1(CC(F)(F)F)Nc2c([S+]([O-])C(F)(F)F)c(C#N)nn2-c2c(Cl)cc(C(F)(F)F)cc21 (stereo not drawn) [d-35] | 90 | 89 | 100 | 30 | 100 | – |
| N#CC1Nc2c([S+]([O-])C(F)(F)F)c(C(F)(F)F)nn2-c2ncc(C(F)(F)F)cc21 (stereo not shown) [a-95] | – | – | – | – | – | Plutella xylostella Mortality (%) 500 ppm (Plutella xylostella): 96%; Spodoptera exigua Mortality (%) 500 ppm (Spodoptera exigua): 89%; Aphis craccivora Mortality (%) 500 ppm (Aphis craccivora): 100%; Solenopsis invicta Mortality (%) 100 ppm 24 h (Solenopsis invicta; 24 h): 21%; Solenopsis invicta Mortality (%) 100 ppm 72 h (Solenopsis invicta; 72 h): 92% |
| COC(=O)CC1(C(=O)OC)Nc2c([S+]([O-])C(F)(F)F)c(C#N)nn2-c2c1ccc(Cl)c2C(F)(F)F (stereo not shown) [e-13] | 100 | 100 | 100 | 20 | 100 | – |
| C=CC1(CCl)Nc2c([S+]([O-])CC)c(C#N)nn2-c2c(Cl)cc(C(F)(F)F)cc21 (stereo not shown) [Compound C17] | – | – | – | – | – | mortality at 500 ppm (Plutella xylostella): 88%; mortality at 500 ppm (Spodoptera exigua): 89%; mortality at 500 ppm (Aphis craccivora): 100%; mortality at 100 ppm (Solenopsis invicta; [1]): 15%; mortality at 100 ppm (Solenopsis invicta; [2]): 68% |
| N#CCC1Nc2c([S+]([O-])C(F)(F)F)c(C#N)nn2-c2cncc(Cl)c21 (stereo not shown) [b-73] | 89 | 85 | 100 | 20 | 90 | – |
| N#Cc1nn2c(c1[S+]([O-])C(F)(F)F)NC(C#N)c1cc(C(F)(F)F)cc(Cl)c1-2 (stereo not drawn) [d-82] | 95 | 89 | 100 | 25 | 90 | – |
| CNC(=O)C1Nc2c([S+]([O-])C(F)(F)F)c(C(F)(F)F)nn2-c2cncc(Cl)c21 (stereo not shown) [b-99] | 91 | 85 | 100 | 24 | 90 | – |
| N#CCC1Nc2c(OC(F)(F)F)c(C#N)nn2-c2c(Cl)cc(C(F)(F)F)cc21 (stereo not drawn) [d-129] | 95 | 100 | 100 | 24 | 100 | – |
| N#Cc1nn2c(c1[S+]([O-])C(F)(F)F)NC(CBr)(C(=O)C(F)(F)F)c1cc(C(F)(F)F)cnc1-2 (stereo not shown) [a-29] | – | – | – | – | – | Plutella xylostella Mortality (%) 500 ppm (Plutella xylostella): 100%; Spodoptera exigua Mortality (%) 500 ppm (Spodoptera exigua): 91%; Aphis craccivora Mortality (%) 500 ppm (Aphis craccivora): 100%; Solenopsis invicta Mortality (%) 100 ppm 24 h (Solenopsis invicta; 24 h): 14%; Solenopsis invicta Mortality (%) 100 ppm 72 h (Solenopsis invicta; 72 h): 96% |
| C=CC1(CC#N)Nc2c([S+](C)[O-])c(C#N)nn2-c2c(Cl)cc(C(F)(F)F)cc21 (stereo not shown) [Compound C22] | – | – | – | – | – | mortality at 500 ppm (Plutella xylostella): 99%; mortality at 500 ppm (Spodoptera exigua): 94%; mortality at 500 ppm (Aphis craccivora): 89%; mortality at 100 ppm (Solenopsis invicta; [1]): 20%; mortality at 100 ppm (Solenopsis invicta; [2]): 70% |
| C=CC1(CC#N)Nc2c([S+]([O-])CC)c(C#N)nn2-c2c(Cl)cc(C(F)(F)F)cc21 (stereo not shown) [Compound C21] | – | – | – | – | – | mortality at 500 ppm (Plutella xylostella): 90%; mortality at 500 ppm (Spodoptera exigua): 95%; mortality at 500 ppm (Aphis craccivora): 100%; mortality at 100 ppm (Solenopsis invicta; [1]): 19%; mortality at 100 ppm (Solenopsis invicta; [2]): 99% |
| CC=CC1Nc2c([S+]([O-])C(F)(F)F)c(C(F)(F)F)nn2-c2c(Cl)cc(C(F)(F)F)cc21 (stereo not drawn) [d-119] | 89 | 90 | 92 | 26 | 83 | – |
| CN1CCN(C(=O)C2(CC#N)Nc3c([S+]([O-])C(F)(F)F)c(C#N)nn3-c3c(Cl)cc(C(F)(F)F)cc32)CC1 (stereo not shown) [Compound C34] | – | – | – | – | – | mortality at 500 ppm (Plutella xylostella): 100%; mortality at 500 ppm (Spodoptera exigua): 100%; mortality at 500 ppm (Aphis craccivora): 100%; mortality at 100 ppm (Solenopsis invicta; [1]): 40%; mortality at 100 ppm (Solenopsis invicta; [2]): 100% |
| N#CCC1(Cl)Nc2c([S+]([O-])C(F)(F)F)c(C#N)nn2-c2c(Cl)cc(C(F)(F)F)cc21 (stereo not drawn) [d-60] | 96 | 90 | 90 | 24 | 90 | – |
| N#Cc1nn2c(c1[S+]([O-])C(F)(F)F)NC(CCl)(C(O)CO)c1cc(C(F)(F)F)cc(Cl)c1-2 (stereo not shown) [Compound C55] | – | – | – | – | – | mortality at 500 ppm (Plutella xylostella): 88%; mortality at 500 ppm (Spodoptera exigua): 80%; mortality at 500 ppm (Aphis craccivora): 91%; mortality at 100 ppm (Solenopsis invicta; [1]): 19%; mortality at 100 ppm (Solenopsis invicta; [2]): 83% |
| COC(=O)CC1(C(=O)OC)Nc2c([S+]([O-])C(F)(F)F)c(C#N)nn2-c2cc(OC(F)(F)F)cc(Cl)c21 (stereo not shown) [c-224] | 99 | 95 | 100 | 25 | 100 | – |
